Several values for one entry are separate records, joined by “and”; a condition that tells them apart may be missing. Identical values can stand only once. Toxic doses and inconclusive results are not listed. No stated cut-off is given here; in the data, active means T/C of 150% or more; inactive means T/C below 125%.
Tested on: L1210 leukemia ip in BDF1 mice, survival T/C
Test: NCI In Vivo Anticancer Drug Screen. Data for tumor model L1210 Leukemia (intraperitoneal) in B6D2F1 (BDF1) mice
Settings: endpoint: mean survival time, higher = longer survival
Method in brief: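 Tumor was transplanted into mice, which were then dosed with test compound or vehicle alone. Survival was recorded for each group, and the treated figure was expressed relative to the control figure.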

[1] = dose: 100.0 mg/kg/injection, schedule: Q01DX009 (ip), vehicle: Klucel (hydroxypropylcellulose) (HPC)
[2] = dose: 100.0 mg/kg/injection, schedule: Q04DX003 (ip), vehicle: Klucel (hydroxypropylcellulose) (HPC)
[3] = dose: 200.0 mg/kg/injection, schedule: Q01DX009 (ip), vehicle: Klucel (hydroxypropylcellulose) (HPC)
[4] = dose: 200.0 mg/kg/injection, schedule: Q04DX003 (ip), vehicle: Klucel (hydroxypropylcellulose) (HPC)
[5] = dose: 400.0 mg/kg/injection, schedule: Q01DX009 (ip), vehicle: Klucel (hydroxypropylcellulose) (HPC)
[6] = dose: 400.0 mg/kg/injection, schedule: Q04DX003 (ip), vehicle: Klucel (hydroxypropylcellulose) (HPC)
[7] = dose: 100.0 mg/kg/injection, schedule: Q04DX002 (ip), vehicle: saline with Tween-80
[8] = dose: 200.0 mg/kg/injection, schedule: Q04DX002 (ip), vehicle: saline with Tween-80
[9] = dose: 400.0 mg/kg/injection, schedule: Q04DX002 (ip), vehicle: saline with Tween-80
[10] = dose: 100.0 mg/kg/injection, schedule: Q04DX003 (ip), vehicle: saline with Tween-80
[11] = dose: 200.0 mg/kg/injection, schedule: Q01DX009 (ip), vehicle: saline with Tween-80
[12] = dose: 200.0 mg/kg/injection, schedule: Q04DX003 (ip), vehicle: saline with Tween-80
[13] = dose: 100.0 mg/kg/injection, schedule: Q01DX001 (ip), vehicle: Klucel (hydroxypropylcellulose) (HPC)
[14] = dose: 200.0 mg/kg/injection, schedule: Q01DX001 (ip), vehicle: Klucel (hydroxypropylcellulose) (HPC)
[15] = dose: 400.0 mg/kg/injection, schedule: Q01DX001 (ip), vehicle: Klucel (hydroxypropylcellulose) (HPC)
[16] = dose: 400.0 mg/kg/injection, schedule: Q04DX003 (ip), vehicle: saline with Tween-80

Measured: T/C

CCCCCCCCCCCCCCCC(C)(C)O
inactive: [1] 102 % of control | [2] 96 % of control | [3] 100 % of control | [4] 96 % of control | [5] 102 % of control | [6] 101 % of control

CCNC(=S)OC1CCC2(C)C(=CCC3C2CCC2(C)C(C(C)CCC(CC)C(C)C)CCC32)C1 (configuration not stated)
inactive: [7] 87 % of control | [8] 87 % of control | [9] 94 % of control

Cc1cc(OC(=O)Nc2cccc(Cl)c2C)ccc1[N+](=O)[O-]
inactive: dose: 25.0 mg/kg/injection, schedule: Q01DX009 (ip), vehicle: saline with Tween-80 104 % of control and 111 % of control | dose: 50.0 mg/kg/injection, schedule: Q01DX009 (ip), vehicle: saline with Tween-80 97 % of control and 103 % of control | [7] 100 % of control and 107 % of control | [10] 105 % of control | [11] 89 % of control | [8] 101 % of control and 104 % of control | [12] 100 % of control | [9] 93 % of control

CCCCCCCCCCCCCCCCNC(=S)N/N=C(/C=C/c1ccccc1)C(=O)O
inactive: dose: 15.0 mg/kg/injection, schedule: Q01DX Z (ip), vehicle: carboxymethylcellulose (CMC) 101 % of control | dose: 30.0 mg/kg/injection, schedule: Q01DX Z (ip), vehicle: carboxymethylcellulose (CMC) 108 % of control | dose: 30.0 mg/kg/injection, schedule: Q01DX Z (oral), vehicle: carboxymethylcellulose (CMC) 112 % of control | dose: 60.0 mg/kg/injection, schedule: Q01DX Z (ip), vehicle: carboxymethylcellulose (CMC) 113 % of control | dose: 60.0 mg/kg/injection, schedule: Q01DX Z (oral), vehicle: carboxymethylcellulose (CMC) 111 % of control | dose: 120.0 mg/kg/injection, schedule: Q01DX Z (oral), vehicle: carboxymethylcellulose (CMC) 100 % of control and 101 % of control | dose: 240.0 mg/kg/injection, schedule: Q01DX Z (oral), vehicle: carboxymethylcellulose (CMC) 108 % of control and 109 % of control | dose: 480.0 mg/kg/injection, schedule: Q01DX Z (oral), vehicle: carboxymethylcellulose (CMC) 109 % of control | dose: 960.0 mg/kg/injection, schedule: Q01DX Z (oral), vehicle: carboxymethylcellulose (CMC) 113 % of control

Clc1ccc(C(c2ccccc2Cl)C(Cl)Cl)cc1 (configuration not stated)
inactive: dose: 62.5 mg/kg/injection, schedule: Q01DX009 (sc), vehicle: steriod suspending solution 98 % of control and 101 % of control | dose: 62.5 mg/kg/injection, schedule: Q01DX010 (sc), vehicle: saline 91 % of control | dose: 62.5 mg/kg/injection, schedule: Q01DX010 (sc), vehicle: steriod suspending solution 102 % of control | dose: 125.0 mg/kg/injection, schedule: Q01DX009 (sc), vehicle: steriod suspending solution 98 % of control and 103 % of control | dose: 125.0 mg/kg/injection, schedule: Q01DX010 (sc), vehicle: saline 102 % of control | dose: 125.0 mg/kg/injection, schedule: Q01DX010 (sc), vehicle: steriod suspending solution 98 % of control | dose: 250.0 mg/kg/injection, schedule: Q01DX009 (sc), vehicle: steriod suspending solution 97 % of control and 100 % of control | dose: 250.0 mg/kg/injection, schedule: Q01DX010 (sc), vehicle: saline 91 % of control | dose: 250.0 mg/kg/injection, schedule: Q01DX010 (sc), vehicle: steriod suspending solution 102 % of control | dose: 500.0 mg/kg/injection, schedule: Q01DX009 (sc), vehicle: steriod suspending solution 97 % of control and 101 % of control | dose: 500.0 mg/kg/injection, schedule: Q01DX010 (sc), vehicle: saline 94 % of control | dose: 500.0 mg/kg/injection, schedule: Q01DX010 (sc), vehicle: steriod suspending solution 98 % of control

CC12CCC(Cl)(CC1O)C2(C)C (configuration not stated)
inactive: dose: 75.0 mg/kg/injection, schedule: Q01DX001 (ip), vehicle: saline 102 % of control | dose: 150.0 mg/kg/injection, schedule: Q01DX001 (ip), vehicle: saline 97 % of control

Clc1ccc(/C=N\N2CCCCCC2)cc1
inactive: [13] 105 % of control | [14] 100 % of control | [15] 98 % of control

CCCNC(C)(C)C(SS)c1ccc(Cl)cc1 (configuration not stated)
inactive: dose: 100.0 mg/kg/injection, schedule: Q01DX009 (ip), vehicle: saline sonified 97 % of control | dose: 100.0 mg/kg/injection, schedule: Q04DX003 (ip), vehicle: saline sonified 106 % of control | dose: 200.0 mg/kg/injection, schedule: Q01DX009 (ip), vehicle: saline sonified 107 % of control | dose: 200.0 mg/kg/injection, schedule: Q04DX003 (ip), vehicle: saline sonified 95 % of control | dose: 400.0 mg/kg/injection, schedule: Q01DX009 (ip), vehicle: saline sonified 96 % of control | dose: 400.0 mg/kg/injection, schedule: Q04DX003 (ip), vehicle: saline sonified 95 % of control

CN(Cc1ccccc1Cl)C(=O)Nc1cccc(Cl)c1
inactive: [1] 97 % of control | [3] 103 % of control | [5] 114 % of control

CC(C)(C)c1cc(Cc2cc(C(C)(C)C)c(O)c(C(C)(C)C)c2)cc(C(C)(C)C)c1O
inactive: [10] 96 % of control | [12] 98 % of control | [16] 104 % of control

Oc1ccc(C(c2ccc(O)cc2)(C(F)(F)F)C(F)(F)F)cc1
inactive: dose: 100.0 mg/kg/injection, schedule: Q01DX009 (ip), vehicle: saline with Tween-80 105 % of control | dose: 100.0 mg/kg/injection, schedule: Q04DX003 (ip), vehicle: alcohol 101 % of control | [11] 97 % of control | dose: 200.0 mg/kg/injection, schedule: Q04DX003 (ip), vehicle: alcohol 95 % of control | dose: 400.0 mg/kg/injection, schedule: Q01DX009 (ip), vehicle: saline with Tween-80 109 % of control | dose: 400.0 mg/kg/injection, schedule: Q04DX003 (ip), vehicle: alcohol 102 % of control

CCCOC(=O)c1cncc(C(=O)OCCC)c1
inactive: [10] 94 % of control | [12] 105 % of control | [16] 100 % of control

Cc1cccc(C(O)c2cnc(C)n2Cc2ccccc2)c1 (configuration not stated)
inactive: [13] 90 % of control | [1] 100 % of control and 86 % of control | dose: 100.0 mg/kg/injection, schedule: Q04DX002 (ip), vehicle: Klucel (hydroxypropylcellulose) (HPC) 108 % of control and 89 % of control | [2] 92 % of control | [14] 100 % of control | [3] 97 % of control and 89 % of control | dose: 200.0 mg/kg/injection, schedule: Q04DX002 (ip), vehicle: Klucel (hydroxypropylcellulose) (HPC) 96 % of control | [4] 96 % of control | [15] 97 % of control | [5] 93 % of control and 97 % of control | dose: 400.0 mg/kg/injection, schedule: Q04DX002 (ip), vehicle: Klucel (hydroxypropylcellulose) (HPC) 93 % of control and 101 % of control | [6] 94 % of control

COc1ccc(OCCCCCCCCCCBr)cc1
inactive: dose: 100.0 mg/kg/injection, schedule: Q04DX002 (ip), vehicle: other 101 % of control | dose: 200.0 mg/kg/injection, schedule: Q04DX002 (ip), vehicle: other 96 % of control | dose: 400.0 mg/kg/injection, schedule: Q04DX002 (ip), vehicle: other 93 % of control

CC1CC(C)CC(C)C(O)/C(C#N)=C/C=C/CC(C2CCCC2C(=O)O)OC(=O)CC(O)C(C)C1 (configuration not stated)
inactive: dose: 0.5 mg/kg/injection, schedule: Q01DX009 (ip), vehicle: saline with Tween-80 98 % of control | dose: 1.0 mg/kg/injection, schedule: Q01DX009 (ip), vehicle: saline with Tween-80 104 % of control | dose: 2.0 mg/kg/injection, schedule: Q01DX009 (ip), vehicle: saline with Tween-80 96 % of control
